Columns and labels:
TEAD3 = TEAD3 (Homo sapiens, UniProt Q99594); assay: TR-FRET (Lipid HTRF) TEAD lipid pocket probe displacement assay, TEAD3; format: binding; conditions: His-tagged TEAD3, biotinylated lipid pocket probe, 4 hours
Experimental: (§1) His-tagged TEAD proteins are pre-incubated with TEAD project compounds for 30 minutes or 4 hours at room temperature. Biotinylated lipid pocket probes are then added to the TEAD/Compound mixture and incubated for 60 minutes at room temperature. The lipid pocket probe competes with the test compound for the TEAD lipid pocket until equilibrium is reached. After 60 minutes, Europium labelled anti-His (Perkin Elmer #AD0110) and XL665 labelled streptavidin (CIS Bio 610SAXAC) are added to the TEAD/test compound/lipid pocket mixture and incubated for 30 minutes or 4 hours. TR-FRET values are then measured using an EnVision multi-label plate reader (Perkin Elmer Cat #2104-001 0A.) If the lipid pocket probe binds to TEAD as expected, a TR-FRET signal results from the proximity of anti-His Eu and XL665. If a TEAD lipid pocket binder such as binds and displaces the lipid pocket probe, the disruption of the TEAD:probe interaction results in a decrease in TR-FRET signal. The potency of compounds as TEAD lipid pocket binders is determined by IC50 value generated using a non-linear 4 parameter curve fit.

TEAD1 = TEAD1 (Homo sapiens, UniProt P28347); assay: TR-FRET (Lipid HTRF) TEAD lipid pocket probe displacement assay, TEAD1; format: binding; conditions: His-tagged TEAD1, biotinylated lipid pocket probe, 4 hours
TEAD4 = TEAD4 (Homo sapiens, UniProt Q15561); assay: TR-FRET (Lipid HTRF) TEAD lipid pocket probe displacement assay, TEAD4; format: binding; conditions: His-tagged TEAD4, biotinylated lipid pocket probe, 4 hours
Experimental: as §1

TEAD2 = TEAD2 (Homo sapiens, UniProt Q15562); assay: biochemical;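 also: TR-FRET competition assay with His-tagged TEAD protein and a biotinylated lipid pocket probe, where probe displacement by compound lowers the signal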
TEAD2, sequence (Q15562 whole entry, species assumed): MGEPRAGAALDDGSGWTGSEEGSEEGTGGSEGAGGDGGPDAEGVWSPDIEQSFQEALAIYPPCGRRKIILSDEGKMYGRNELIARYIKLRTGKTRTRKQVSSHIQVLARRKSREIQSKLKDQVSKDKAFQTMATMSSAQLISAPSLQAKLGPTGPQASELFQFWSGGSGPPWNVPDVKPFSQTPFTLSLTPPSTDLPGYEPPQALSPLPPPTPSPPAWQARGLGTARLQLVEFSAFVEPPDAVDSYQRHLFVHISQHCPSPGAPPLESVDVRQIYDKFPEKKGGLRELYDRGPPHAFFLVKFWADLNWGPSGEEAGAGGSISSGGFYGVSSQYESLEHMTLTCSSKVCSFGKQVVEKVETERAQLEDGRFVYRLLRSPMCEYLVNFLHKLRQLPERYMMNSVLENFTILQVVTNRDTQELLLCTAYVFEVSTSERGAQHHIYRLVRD
Experimental: as §1

TEAD3, sequence (Q99594 whole entry, species assumed): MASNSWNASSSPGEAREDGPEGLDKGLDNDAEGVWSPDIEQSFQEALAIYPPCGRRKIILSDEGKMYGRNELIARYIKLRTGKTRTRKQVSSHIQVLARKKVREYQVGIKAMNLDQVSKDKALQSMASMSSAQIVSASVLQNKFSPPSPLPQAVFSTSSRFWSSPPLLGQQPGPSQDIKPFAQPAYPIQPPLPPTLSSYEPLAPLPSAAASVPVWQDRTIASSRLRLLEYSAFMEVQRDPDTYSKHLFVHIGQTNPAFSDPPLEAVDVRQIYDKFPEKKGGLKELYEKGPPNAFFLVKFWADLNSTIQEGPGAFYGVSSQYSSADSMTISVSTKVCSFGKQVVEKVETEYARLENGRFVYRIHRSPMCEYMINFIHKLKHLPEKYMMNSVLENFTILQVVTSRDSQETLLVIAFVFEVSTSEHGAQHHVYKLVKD
TEAD1, sequence (P28347 whole entry, species assumed): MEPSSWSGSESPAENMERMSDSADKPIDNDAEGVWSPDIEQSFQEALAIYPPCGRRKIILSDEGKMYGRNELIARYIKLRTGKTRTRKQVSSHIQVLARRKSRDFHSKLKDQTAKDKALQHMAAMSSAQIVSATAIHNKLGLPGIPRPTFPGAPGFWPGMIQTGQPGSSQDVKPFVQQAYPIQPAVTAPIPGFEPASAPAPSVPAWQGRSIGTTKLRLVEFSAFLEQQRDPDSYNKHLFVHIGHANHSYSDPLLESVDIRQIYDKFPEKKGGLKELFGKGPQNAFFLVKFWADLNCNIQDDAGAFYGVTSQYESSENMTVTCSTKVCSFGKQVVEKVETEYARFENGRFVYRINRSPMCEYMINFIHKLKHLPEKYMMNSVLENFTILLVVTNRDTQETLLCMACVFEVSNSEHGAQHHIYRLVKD
TEAD4, sequence (Q15561 whole entry, species assumed): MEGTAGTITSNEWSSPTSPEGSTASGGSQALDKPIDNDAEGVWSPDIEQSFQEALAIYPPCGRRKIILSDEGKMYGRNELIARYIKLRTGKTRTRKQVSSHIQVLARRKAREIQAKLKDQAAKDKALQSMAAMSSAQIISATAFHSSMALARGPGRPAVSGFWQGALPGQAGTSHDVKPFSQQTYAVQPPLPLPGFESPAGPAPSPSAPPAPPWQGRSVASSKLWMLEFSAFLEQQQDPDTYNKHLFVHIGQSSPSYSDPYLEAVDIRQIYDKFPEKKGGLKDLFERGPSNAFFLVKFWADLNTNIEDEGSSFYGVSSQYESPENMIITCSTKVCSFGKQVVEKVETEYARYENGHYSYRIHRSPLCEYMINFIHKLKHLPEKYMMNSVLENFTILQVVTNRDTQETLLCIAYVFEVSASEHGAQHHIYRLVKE

`C=CC(=O)N(C)Cc1cc(-c2ccc(OC(F)(F)F)cc2)c2ncoc2c1[C@@H](O)CO` (single isomer, unassigned) [Compound 108] showed an IC50 (TEAD3) of 47 nM, an IC50 (TEAD1) of 130 nM and an IC50 (TEAD4) of 24 nM. For the same molecule, the IC50 (TEAD2) was 76 nM.
`C=CC(=O)NCc1cc(-c2ccc(OC(F)(F)F)cc2)c2ncccc2c1[C@H](O)CO` (single isomer, unassigned) [Compound 47] showed an IC50 (TEAD3) of 175 nM, an IC50 (TEAD1) of 22 nM and an IC50 (TEAD4) of 135 nM. It also gave an IC50 (TEAD2) of 11.5 nM.
For `C#Cc1ccc(-c2cc(CNC(=O)C=C)c(CO)c3c2OCC3)cc1` [Compound 93, N-((7-(4-Ethynylphenyl)-4-(hydroxymethyl)-2,3-dihydrobenzofuran-5-yl)methyl)acrylamide], the IC50 (TEAD3) was 1100 nM, the IC50 (TEAD1) was 880 nM and the IC50 (TEAD4) was 490 nM. For the same molecule, the IC50 (TEAD2) was 540 nM.
For `C=CC(=O)NCc1cc(-c2ccc(OC(F)(F)F)cc2)c2c(c1[C@@H](O)CC#N)CCO2` (single isomer, unassigned) [Compound 92], the IC50 (TEAD3) was 1600 nM, the IC50 (TEAD1) was 760 nM and the IC50 (TEAD4) was 340 nM. For the same molecule, the IC50 (TEAD2) was 16 nM.
In the case of `C=CC(=O)NCc1cc(-c2ccc(OC(F)(F)F)cc2)c2cccnc2c1C` [Compound 43, N-[[8-methyl-5-[4-(trifluoromethoxy)phenyl]-7-quinolyl]methyl]prop-2-enamide], the IC50 (TEAD3) is reported as 22 nM, the IC50 (TEAD1) is reported as 10 nM and the IC50 (TEAD4) is reported as 16 nM. It also gave an IC50 (TEAD2) of 9.8 nM.
For `C=CC(=O)N1CC(c2nc(-c3ccc(OC(F)(F)F)cc3)c3ncsc3n2)C1` [Compound 99, 1-(3-(7-(4-(Trifluoromethoxy)phenyl)thiazolo[5,4-d]pyrimidin-5-yl)azetidin-1-yl)prop-2-en-1-one], the IC50 (TEAD3) was 3.1 nM, the IC50 (TEAD1) was 3.7 nM and the IC50 (TEAD4) was 2.7 nM. The IC50 (TEAD2) was 4.3 nM.
Molecule `C=CC(=O)NCc1nc(-c2ccc(OC(F)(F)F)cc2)c2ncn(C)c2n1` [Compound 69, N-[[9-methyl-6-[4-(trifluoromethoxy)phenyl]purin-2-yl]methyl]prop-2-enamide] has an IC50 (TEAD3) of 97 nM, an IC50 (TEAD1) of 40 nM and an IC50 (TEAD4) of 7.5 nM. It also gave an IC50 (TEAD2) of 100 nM.
`C=CC(=O)NCc1cc(-c2ccc(C(F)(F)F)cc2)c2ncoc2c1[C@H](O)CO` (single isomer, unassigned) [Compound 109] was tested, and the IC50 (TEAD3) was 71 nM, the IC50 (TEAD1) was 150 nM and the IC50 (TEAD4) was 170 nM. It also gave an IC50 (TEAD2) of 58 nM.
`C=CC(=O)NCc1cc(-c2ccc(OC(F)(F)F)cc2)c2ncccc2c1CO` [Compound 50, N-[[5-(hydroxymethyl)-8-[4-(trifluoromethoxy)phenyl]-6-quinolyl]methyl]prop-2-enamide] was tested, and the IC50 (TEAD3) was 37 nM, the IC50 (TEAD1) was 12 nM and the IC50 (TEAD4) was 34 nM. It also gave an IC50 (TEAD2) of 11 nM.
In the case of `C=CC(=O)NCc1nc(-c2ccc(OC(F)(F)F)cc2)c2ncn(C)c2c1CO` [Compound 73, N-((7-(hydroxymethyl)-1-methyl-4-(4-(trifluoromethoxy)phenyl)-1H-imidazo[4,5-c]pyridin-6-yl)methyl)acrylamide], the IC50 (TEAD3) is reported as 220 nM, the IC50 (TEAD1) is reported as 58 nM and the IC50 (TEAD4) is reported as 39 nM. The IC50 (TEAD2) was 40 nM.
In the case of `C=CC(=O)NCc1nc(N2CCC(OC(F)(F)F)CC2)c2ncn(C)c2n1` [Compound 131, N-((9-Methyl-6-(4-(trifluoromethoxy)piperidin-1-yl)-9H-purin-2-yl)methyl)acrylamide], the IC50 (TEAD3) is reported as 1200 nM, the IC50 (TEAD1) is reported as 400 nM and the IC50 (TEAD4) is reported as 81 nM. The IC50 (TEAD2) was 1600 nM.
`C=CC(=O)NCc1cc(-c2ccc(OC(F)(F)F)cc2)c2ncn(C)c2c1C#C[C@H](O)CO` [Compound 74, (S)—N-((7-(3,4-dihydroxybut-1-yn-1-yl)-1-methyl-4-(4-(trifluoromethoxy)phenyl)-1H-benzo[d]imidazol-6-yl)methyl)acrylamide] was tested, and the IC50 (TEAD3) was 340 nM, the IC50 (TEAD1) was 16 nM and the IC50 (TEAD2) was 17 nM.
Work on `C=CC(=O)N1CC[C@H](c2nc(-c3ccc(OC(F)(F)F)cc3)c3ncn(C)c3n2)C1` (single isomer, unassigned) [Compound 123] yielded an IC50 (TEAD3) of 80 nM, an IC50 (TEAD1) of 17 nM and an IC50 (TEAD2) of 7.8 nM.

Reference: patent US12275745B2, “Therapeutic compounds and methods of use” (Genentech, Inc., priority 2021, dated 2025)
